According to patent US20120107417A1, “Effective Antitumor Treatments” (PHARMA MAR, S.A., priority 2000, published 2012):
Read-outs that look alike come from different tables or passages of the source.

What was measured:
HT-1080 = assay: SRB cytotoxicity assay and Chou-Talalay combination index, HT-1080; format: cell-based, human
Protocol: (§1) Soft tissue sarcoma cell lines, HT-1080 and HS-18 were maintained as monolayer cultures in RP<I-1640 containing 10% fetal bovine serum.
(§2) Cytotoxicity to drugs was determined by SRB cytotoxicity assay carried out in 96-well microtiter plates as described. Cells were plated in duplicate wells (5000 cells/well) and exposed to drugs at different concentrations. Cells were fixed with 50% TCA solution for 1 h and 0.4% SRB (Sigma) was added to each well. After a 30 min incubation, the plate were washed with 1% acetic acid and read at 570 nm on a Biowhitaker microplate reader 2001. The wells with cells containing no drugs and with medium plus drugs but no cells were used as positive and negative controls, respectively.
(§3) Cells were seeded into 96-well plates, as described previously. Cells were treated with seven different concentrations of the single drugs or combinations mixture at 1:100 (ET-743: the other drugs) molar ratio. After 72 h exposure, growth inhibition was measured using the SRB assay.
(§4) Using the same experimental setup described above, we exposed cells to three different concentrations of drugs which represents the IC25, IC50, IC75 of ET-743, DXR, TMTX and paclitaxel, respectively. After 24 hours pre-treatment with ET743 or the combination drug, the second drugs were added to the respective wells for 48 h. Growth inhibition was determined using the SRB assay.)
(§5) The CI was calculated by the Chou-Talalay equation, which takes into account both potency (Dm or IC50) and the shape of the dose effect curve (the m value). The general equation for the classic isobologram (CI=1) is given by:
(§6) CI=(D)1/(Dx)1+(D)2/(Dx)2 (A)

HT-1080 cells = assay: Cell cycle analysis (propidium iodide, FACS), HT-1080; format: cell-based, human
Protocol: (§7) Exponentially growth cells were treated with or without drugs for several hours. Cells were then collected and fixed with ice-cold 70% methanol. DNA was stained with propidium iodide as described previously. Ten thousand stained cells were analyzed on a Becton Dickinson fluorescence-activated cell sorter (FACS).

HS-18 cells = assay: Cell cycle analysis (propidium iodide, FACS), HS-18; format: cell-based, human
Protocol: as §7

HS-18 = assay: SRB cytotoxicity assay and Chou-Talalay combination index, HS-18; format: cell-based, human
Protocol: as §1, §2, §3, §4, §5, §6

liver = details: rat
Protocol: In the light of the antiinflammatory activity of dex, we investigated its effect on liver damage induced by ET-743 in the rat. Female Wistar rats received a single iv dose of ET-743 (40 μg/kg). Some rats were pretreated with a single oral dose of dex either at 1, 5, 10 or 20 mg/kg 24 h prior to ET-743 treatment. Liver pathology and plasma concentrations of alkaline phophatase (ALP), aspartate aminotransferase (GOT) and total bilirubin (TB) were assessed up to 3 days post ET-743 administration. Conventional histological sections of the livers were examined by light microscopy.

NER deficient cells = NER deficient cells very sensitive to cisplatin; previous studies; cited from earlier work
B16 melanoma = assay: Activity of ET-743 against B16 melanoma with dexamethasone; format: in vivo; details: mice
Protocol: (§8) Plasma levels of ET-743 in rats which received dex (50 mg/kg) daily for 3 days prior to ET-743 were not decreased compared to those in rats on ET-743 alone. Furthermore, the activity of ET-743 against B16 melanoma implanted into mice was not impeded by dexamethasone.

renal (MRI-H-121) = assay: Renal xenografts, Et743 and VINB; format: in vivo; details: Et743 alone vs Et743 followed by VINB 6 mg/Kg
Description: (§9) Osteosarcoma xenografts produced similar results of 17% vs. 43%. […] The one exception was in NSCL were Et743 alone was not active (62% T/C) but DPP followed by Et743 produced CR (<1% T/C). In renal xenografts Et743 alone was very active (22% T/C) but Et743 followed by VINB also produced CR (<1% T/C). Separate studies are underway with other standard agents in breast, renal, melanoma and gastric tumor xenografts.

[1] = tested on: mismatch repair (MMR) deficient cells; details: MMR deficient vs proficient cells; previous studies; cited from earlier work
[2] = tested on: human ovarian carcinoma HOC8; assay: ET-743/DDP against orthotopically transplanted HOC8; format: in vivo; details: HOC8 orthotopic, peritoneal nodules with ascites; single agents
NSCL (LX-1) = assay: NSCL tumor, Et743 and DDP; format: in vivo; details: Et743 alone vs DDP followed by Et743
Description: as §9

UV2237/ADR = assay: ET-743/doxorubicin against mdr-resistant subline UV2237/ADR in mice; format: in vivo, murine; details: alone or combination
melanoma (MEXF 989) = details: Hendriks et al. 1999; cited from earlier work
[3] = tested on: murine fibrosarcoma UV2237; assay: ET-743/doxorubicin against murine fibrosarcoma UV2237 in mice; format: in vivo; details: alone or combination
[4] = Plasma levels of ET-743 in rats pretreated with dex; format: in vivo; details: rats given dex 50 mg/kg daily for 3 days prior to ET-743, compared to ET-743 alone
Protocol: as §8

ovary (MRI-H-1834) = assay: Hollow fiber (HF) model, ovary; format: in vivo; details: Et743 0.2 mg/Kg pre-DDP 12 mg/Kg vs Et743 alone
Description: as §9

breast carcinoma (MX-1) = details: Hendriks et al. 1999; cited from earlier work
NSCL (LXFL 529) = details: Hendriks et al. 1999; cited from earlier work
osteosarcoma (OSA-FH) [5] = assay: Hollow fiber (HF) model, osteosarcoma; format: in vivo
Description: as §9

sc transplanted TE671 = assay: ET-743/DDP against sc transplanted TE671; format: in vivo, human; details: single drugs at MTD or combination
ovary (HOC 22) = details: Hendriks et al. 1999; cited from earlier work
[6] = tested on: human rabdomyosarcoma zenograft TE671; assay: ET-743/doxorubicin against TE671 xenograft in athymic (nude) mice; format: in vivo
Protocol: In vivo: Single iv treatments (ET-743, 0.1 mg/Kg; DOX, 10 mg/Kg) were administered in nude mice when xenograft tumors weighed approximately 100 mg.

osteosarcoma (OSA-FH) [7] = assay: Osteosarcoma xenografts; format: in vivo; details: DOX 1 hr pre-Et743 vs Et743 alone
Description: as §9

xenograft = assay: Xenograft, Et743 pre-DDP (tumor not named); format: in vivo; details: xenograft data; Et743 pre-DDP vs Et743 alone
Description: as §9

TE 671 cells = assay: Clonogenic assay ET-743/DOX, TE 671; format: cell-based, human; details: 1 hr exposures, isobologram analysis and Combination Index
Protocol: In vitro: The effect of each drug or combination after 1 hr exposures was evaluated by clonogenic assay.

ovarian 1 A 9 tumor = assay: ET-743/DDP against ovarian 1A9 tumor in vivo; design: species or system human; details: single agents
Description: The ovarian 1 A 9 tumor that is normally resistant to both ET-743 and DDP as single agents, in combination produced a tumor growth inhibition greater than 50%.

fibrosarcoma (SW684) = assay: Hollow fiber (HF) model, fibrosarcoma; format: in vivo; details: DOX 8 mg/Kg 1 hr pre-Et743 0.2 mg/Kg vs Et743 alone, qdx5
Description: as §9

chondrosarcoma (CSHA) = assay: Hollow fiber (HF) model, chondrosarcoma; format: in vivo
Description: as §9

[8] = 24 h after treatment with approximate IC50 dose
[9] = 72 h after treatment with approximate IC50 dose
[10] = ET-743 40 μg/kg iv alone, after 2 days
[11] = DOX 8 mg/Kg 1 hr pre-Et743 0.2 mg/Kg vs Et743 alone, qdx5
[12] = single i.v. treatment at tumor approx. 100 mg, drug alone (ET-743 0.1 mg/kg; Dx 10 mg/kg)

## COc1cc(NCc2ccc3nc(N)nc(N)c3c2C)cc(OC)c1OC [TMTX, trimetrexate]
HT-1080; Homo sapiens, HT-1080, 72 h, read-out: IC50 for human soft tissue sarcoma cells, HT-1080
  IC50: 6 nM
HT-1080 cells; [8]
  % G1: 31.9%
  % G2-M: 11.3%
  % S phase: 56.8%
HT-1080 cells; [9]
  % G1: 32.0%
  % G2-M: 14.4%
  % S phase: 53.7%
HS-18 cells; [8]
  % G1: 44.2%
  % G2-M: 1.9%
  % S phase: 53.8%
HS-18 cells; [9]
  % G1: 35.5%
  % G2-M: 7.0%
  % S phase: 57.6%
HS-18; Homo sapiens, 72 h, read-out: IC50 for human soft tissue sarcoma cells, HS-18
  IC50: 70000 nM

## C[C@@H]1C[C@H]2[C@@H]3CCC4=CC(=O)C=C[C@]4(C)[C@@]3(F)[C@@H](O)C[C@]2(C)[C@@]1(O)C(=O)CO [dex, dexamethasone]
liver; dex 1 mg/kg single oral dose 24 h prior to ET-743
  protection against ET-743 liver damage: little protection
liver; dex 5 mg/kg single oral dose 24 h prior to ET-743
  protection against ET-743 liver damage: moderately protective
liver; dex 10 mg/kg single oral dose 24 h prior to ET-743 40 μg/kg iv
  effect on ET-743-induced histopathological changes and elevation of plasma ALP, GOT and TB: totally abrogated
liver; dex 20 mg/kg single oral dose 24 h prior to ET-743 40 μg/kg iv
  effect on ET-743-induced histopathological changes and elevation of plasma ALP, GOT and TB: totally abrogated

## Ecteinascidin 743 [ET-743]
NER deficient cells
  times less sensitive to ET-743: 6-8 times
B16 melanoma
  activity of ET-743 against B16 melanoma: not impeded
Renal (MRI-H-121)
  T/C: 22%
[1]
  sensitivity to ET-743 compared with proficient cells: equally sensitive
liver; [10]
  Plasma levels of ALP: significantly elevated
  Plasma levels of GOT: significantly elevated
liver; ET-743 40 μg/kg iv alone, commenced on day 2
  plasma TB concentrations: dramatic increase
liver; ET-743 40 μg/kg single iv alone, 2 days post treatment
  liver pathology: bile duct inflammation, striking degenerative changes in biliary epithelial cells and zones of hepatic necrosis
[2]
  sensitivity of tumor to single agent: resistant
NSCL (LX-1)
  T/C: 62%
HT-1080; HT 1080 fibrosarcoma cell line, read-out: IC50
  IC50: 0.01 nM
UV2237/ADR
  antitumor effect in words: inactive or marginally active
Melanoma (MEXF 989)
  in vivo tumor growth inhibition, single agent: complete remissions
[3]
  antitumor effect in words: effective
[4]
  Plasma levels of ET-743: not decreased
Ovary (MRI-H-1834)
  T/C: 100%
Breast carcinoma (MX-1)
  in vivo tumor growth inhibition, single agent: complete remissions
NSCL (LXFL 529)
  in vivo tumor growth inhibition, single agent: complete remissions
Osteosarcoma (OSA-FH) [5]; [11]
  T/C: 34%
Osteosarcoma (OSA-FH) [5]; Et743 pre-DDP and Et743 alone, equivalent activities
  T/C: 36%
HT-1080 cells; [8]
  % G1: 42.6%
  % G2-M: 21.3%
  % S phase: 36.1%
HT-1080 cells; [9]
  % G1: 83.1%
  % G2-M: 6.7%
  % S phase: 10.2%
Sc transplanted TE671
  antitumor effect in words: partially sensitive
Ovary (HOC 22)
  in vivo tumor growth inhibition, single agent: complete remissions
HS-18 cells; [8]
  % G1: 32.4%
  % G2-M: 20.0%
  % S phase: 47.6%
HS-18 cells; [9]
  % G1: 86.7%
  % G2-M: 4.9%
  % S phase: 8.4%
[6]; TE671 in mice, alone or combination
  antitumor effect in words: inactive or marginally active
[6]; [12]
  Log 10 Cell Kill (LCK): 0.132
  tumor weight inhibition (TWI): 46%
Osteosarcoma (OSA-FH) [7]
  T/C: 43%
xenograft
  T/C: 66%
TE 671 cells
  anti-tumor activity / interaction in clonogenic assay: showed anti-tumor activity
HS-18; HS-18 liposarcoma cell line, read-out: IC50
  IC50: 0.27 nM
Ovarian 1 A 9 tumor
  sensitivity of tumor to single agent: resistant
Fibrosarcoma (SW684)
  T/C: 48%
Chondrosarcoma (CSHA); [11]
  T/C: 10%
Chondrosarcoma (CSHA); Et743 0.2 mg/Kg pre-DDP 12 mg/Kg vs Et743 alone
  T/C: 19%
